Results reported in US6362215B1 (priority 1998, dated 2002).

Tests used:
laying hens [1] = assay: Other tests on shell quality of older hens supplied with calcium L-pidolate; format: in vivo; conditions: between the 60th week and the 72nd week
Text: The decrease in quality of the shell increases between the 55th and 65th week. The hens are generally sacrificed at 68 to 70 weeks. […] As a result, the duration of exploitation of the hen can thus be prolonged so as to improve the profit of raising by reducing the hen/egg cost.

laying hens [2] = assay: Henhouse test on laying hens, calcium L-pidolate in feedstuff; eggs examined by candling
Text: The downgraded percentage corresponds to the percentage of eggs with cracked shells, which shell having been carefully examined by candling so as to detect any rupture of the shell (cracks, holes, etc.). The percentage of uncracked egg shells was computed from eggs on which no shell rupture was observed by candling.

## calcium L-pidolate
Laying hens [1]
  decrease in quality of the shell: can be stabilized
Laying hens [2]; after stopping treatment
  persistence of improvements in egg color (pure white eggs or chalky appearance) after stopping treatment: persisted eight to ten days after stopping treatment
Laying hens [2]; day after the day of administration in feedstuff, 19,300 hens, candling
  percentage of downgraded eggs (eggs with cracked shells): decrease of the percentage of downgraded eggs
Laying hens [2]; day after the end of treatment
  effect on quality, in particular mechanical strength of the egg shells, after end of treatment: decreased and disappeared completely
Laying hens [2]; tests of FIG. 1, winter, October-November
  percentage of downgraded eggs over the test period: maintaining the percentage of downgraded eggs at a substantially constant value
